We go through four compounds from paper PMC12692291, “Development and In Vitro Evaluation of [^64Cu]Cu-NOTA-TP-PSMA, a Novel Radiotheranostic Agent Against Prostate Cancer” (International Journal of Molecular Sciences, 2025).

For data set [1], the system named is HEK-293 cells. The experiment in a line: PrestoBlue cytotoxicity assay in HEK-293 cells. The data set is classed as cell-based, human. To be noted: read-out: EC50 HEK293. The procedure: (§1) The cytotoxicity of compounds 1–3, ^natCu-NOTA-TP-PSMA, and cisplatin (platinum-based drug) were assessed with PrestoBlue, a resazurin-based method to assess mitochondrial function in LNCaP and HEK-293 cells at 24, 48, and 72 h. Effective concentration (EC50) values summarized in Table 3 were calculated from the dose–response curves of each compound (Figure S7).
(§2) Cytotoxicity was evaluated using a resazurin-based assay (PrestoBlue) in 96-well plates. LNCaP (15,000 cells/well) and HEK-293 (10,000 cells/well) were seeded and incubated for 72 h. Cells were then treated with serial dilutions of [^64Cu]Cu-NOTA-TP-PSMA and controls for 24, 48, or 72 h. After treatment, cells were rinsed with PBS and incubated with PrestoBlue reagent for 40 min. Fluorescence was measured at 570 nm (excitation) and 610 nm (emission). Background readings from blank wells were subtracted. Cell viability was calculated relative to untreated controls. IC50 values were determined using dose–response curves. Controls included [^64Cu]Cu-NOTA-TP, [^64Cu]Cu-NOTA-PSMA, ^natCu-NOTA-TP-PSMA, and cisplatin (0–500 µM in 0.9% saline). All assays were performed in triplicate and all data presented in Results are the average of three independent experiments. TP conjugates were dissolved in 1% DMSO and diluted in saline. Inhibitory concentration 50 (IC50) values were calculated to quantify the effectiveness of the compounds.

The subject of data set [2] is LNCaP cells. The data set is classed as cell-based. How it is done:
as §1, §2

Data set [3] concerns HEK-293 cells. The experiment in a line: Efflux (retention) study in HEK-293 cells. To be noted: Table S3 second part (HEK-293). The data set is classed as cell-based, human. The procedure:
(§3) Efflux studies were conducted by incubating the cells with the compound for an initial period of 1 h, after which the incubation medium was replaced with fresh, compound-free medium. The retained intracellular radioactivity was then measured at various time points up to 24 h and expressed as the percentage of retention relative to the 0-h time point, defined as the time immediately after medium replacement.

For data set [4], the system named is HEK-293 cells. Briefly: Nuclear localization in HEK-293 cells. Format: cell-based, human. How it is done: (§4) To assess nuclear localization, LNCaP and HEK-293 cells were incubated with 1 MBq of [^64Cu]Cu-NOTA-TP-PSMA 1 for 24, 48, and 72 h. Nuclear extraction was performed following a previously established protocol. Following incubation, cells were lysed and fractionated using cytoskeletal buffer to isolate nuclear components. Nuclear and cytoplasmic radioactivity were measured using a HIDEX automatic gamma counter. Data were used to evaluate time-dependent nuclear accumulation of the tracer.

Data set [5] deals with LNCaP cells. The experiment in a line: Efflux (retention) study in LNCaP cells. The data set is classed as cell-based. To be noted: Table S3 first part (LNCaP). The procedure:
as §3

Data set [6] concerns LNCaP cells. Briefly: Nuclear localization in LNCaP cells. The data set is classed as cell-based. The procedure: as §4
Data set [7] has as its system LNCaP cells. Briefly: Cellular uptake and internalization in LNCaP cells. The data set is classed as cell-based. The settings on record: LNCaP, 24 h, 37 °C, 1 nM. How it is done:
LNCaP cells (1 × 10^5 cells/well) were seeded into 24-well plates and incubated for 72 h. Cells were treated with 1nM [^64Cu]Cu-NOTA-TP-PSMA or control monomers ([^64Cu]Cu-NOTA-TP and [^64Cu]Cu-NOTA-PSMA), each containing 0.1 MBq of radioactivity in RPMI-1640 medium.
Uptake and internalization were assessed at multiple time points (30 min to 24 h). At each timepoint, cells were washed with cold PBS, detached with trypsin, and counted using a hemocytometer. For internalization studies, surface-bound radioactivity was removed using 50 mM glycine-HCl buffer (pH 2.2) for 5 min, followed by additional PBS washes.
To investigate the internalization mechanism, parallel experiments were conducted at 4 °C to evaluate passive versus active uptake. Receptor specificity was assessed via blocking assays using 1 µM ^natCu-NOTA-TP-PSMA (1000-fold excess) co-incubated with 1 nM radiolabeled tracer. Post-incubation, intracellular radioactivity was quantified using a HIDEX gamma counter. All results were normalized to 10^6 cells and expressed as percent counts per minute per million cells (%CPM/10^6 cells).

Data set [8] is described as follows: Solubility in aqueous media. The data set is classed as physicochemical.

Like-named read-outs stand apart in the source and are kept apart here.

What is called EC50 is the concentration at which the effect is half-maximal. As to `N.N.[Cl][Pt][Cl]` [Cisplatin, cisplatin, reference compound], the EC50 came to 31.3 µM in the data set on HEK-293 cells [1] (24 h); 41 µM in the data set on HEK-293 cells [1] (48 h); 27.5 µM in the data set on HEK-293 cells [1] (72 h); 81 µM in the data set on LNCaP cells [2] (24 h); 30.4 µM in the data set with LNCaP cells [2] (48 h); 22.9 µM in the data set with LNCaP cells [2] (72 h).

Turning to `O=C(O)CC[C@H](NC(=O)N[C@@H](CCCCNC(=O)[C@@H](Cc1ccc2ccccc2c1)NC(=O)[C@H]1CC[C@H](CNC(=O)CNC(=O)COCCOCCNC(=O)CN2CCN(CC(=O)O)CCN(CC(=O)O)CC2)CC1)C(=O)O)C(=O)O` [[^64Cu]Cu-NOTA-PSMA 3, metal not drawn], the “fold less cytotoxic than compound 1” value in the data set on LNCaP cells [2] is recorded as 5–16 fold. Further, the Retained activity with HEK-293 cells [3] (0 h after medium replacement) was determined as 100 ± 0 %CPM/106 cells; in the data set with HEK-293 cells [3] (1 h), 59.4 ± 22.3 %CPM/106 cells; with HEK-293 cells [3] (2 h) it was 45.1 ± 14.5 %CPM/106 cells; in the data set on HEK-293 cells [3] (4 h), 38.4 ± 4.1 %CPM/106 cells; in the data set with HEK-293 cells [3] (24 h), 22.0 ± 1.5 %CPM/106 cells; in the data set with LNCaP cells [5] (0 h after medium replacement) it was 100 ± 0 %CPM/106 cells. Also, the Retained activity with LNCaP cells [5] (1 h) was determined as 54.8 ± 10.0 %CPM/106 cells; with LNCaP cells [5] (2 h), 49.6 ± 8.1 %CPM/106 cells; with LNCaP cells [5] (4 h), 46.6 ± 8.1 %CPM/106 cells; with LNCaP cells [5] (24 h), 39.2 ± 7.9 %CPM/106 cells. Moreover, the results for the “nuclear uptake in HEK-293 cells” value in the data set on HEK-293 cells [4] (48 h) and with HEK-293 cells [4] (72 h) were 0.13 ± 0.05% and 0.23 ± 0.04%, respectively. Further, the “Nuclear uptake HEK-293” value was determined as 0.07 ± 0.05 %ID/10⁶ cells in the data set with HEK-293 cells [4] (Table S4, 24 h); 0.13 ± 0.05 %ID/10⁶ cells with HEK-293 cells [4] (Table S4, 48 h); 0.23 ± 0.04 %ID/10⁶ cells in the data set on HEK-293 cells [4] (Table S4, 72 h). In addition, the “nuclear uptake fold difference LNCaP vs HEK-293” value with LNCaP cells [6] (24 h) came out at 5.8 fold; in the data set with LNCaP cells [6] (72 h), 1.5 fold. Further, the “nuclear uptake in LNCaP cells” value is listed as 0.30 ± 0.13% in the data set on LNCaP cells [6] (48 h) and 0.35 ± 0.07% in the data set on LNCaP cells [6] (72 h). Also, the “Nuclear uptake LNCaP” value with LNCaP cells [6] (Table S4, 24 h) worked out at 0.44 ± 0.25 %ID/10⁶ cells; in the data set on LNCaP cells [6] (Table S4, 48 h), 0.77 ± 1.02 %ID/10⁶ cells; with LNCaP cells [6] (Table S4, 72 h), 0.35 ± 0.07 %ID/10⁶ cells. Also, the Internalization in the data set on LNCaP cells [7] worked out at 16.7 ± 1.6 %CPM/10^6 cells. Also, the Uptake in the data set with LNCaP cells [7] amounted to 22.8 ± 1.2 %CPM/10^6 cells.

For `O=C(O)CC[C@H](NC(=O)N[C@@H](CCCCNC(=O)[C@@H](Cc1ccc2ccccc2c1)NC(=O)[C@H]1CC[C@H](CNC(=O)CNC(=O)COCCOCCNC(=O)CN2CCN(CC(=O)O)CCN(CC(=O)O)CC2)CC1)C(=O)O)C(=O)O` [^natCu-NOTA-PSMA, metal not drawn], the solubility entry in data set [8] is “readily soluble in aqueous media”.

Consider `O=C(O)CC[C@H](NC(=O)N[C@@H](CCCCNC(=O)[C@@H](Cc1ccc2ccccc2c1)NC(=O)C1CCC(CNC(=O)C(CCCCNC(=O)c2cc3[n+]4c(c2)-c2cccc[n+]2[Pt-2]4([Cl])[n+]2ccccc2-3)NC(=O)COCCOCCNC(=O)CN2CCN3CCN(CC2)CC(=O)[O][Cu][O]C(=O)C3)CC1)C(=O)O)C(=O)O` (stereo partly drawn) [^natCu-NOTA-TP-PSMA], for which the solubility result in data set [8] was “reduced solubility”.
